Counter-ions that a name gives are not always drawn. Like-named read-outs stand apart in the source and are kept apart here. One block for each compound: values may come before it.
Assays:
[1] = physiological common salt solution, +25° C., cited from earlier work
[2] = Suspension equilibration stability; format: physicochemical
Description: (a) Suspension equilibration of (6R)-5,10-CH2-THF hemisulfate salt as starting material at temperatures other than room temperature in a variety of solvents and mixture are summarized in Table 10: […]

[3] = Crystal form stability by XRPD (85% ethanol; high temperature/low pressure); format: physicochemical
Procedure: (§1) (b) Stability in 85% Ethanol at Room Temperature (6R)-5,10-CH2-THF hemisulfate salt (3.01 g) was dispersed in 100 ml 85% EtOH at room temperature and stirred for 5 h, then filtered and dried at 30° C. and 8 mbar for 12 hours (over night). […] (c) Stability at High Temperature/Low Pressure (6R)-5,10-CH2-THF hemisulfate salt (2.17 g) was placed in a drying chamber at 65° C. and 8 mbar for 21 h. […] (d) Long-Term Stability of (6R)-5,10-CH2-THF Hemisulfate Salt and Pharmaceutical Composition Thereof In order to determine the long-term stabilities of (6R)-5,10-CH2-THF hemisulfate salt, the salts were stored in air at 25° C. and at 60% relative humidity. The content of (6R)-5,10-CH2-THF hemisulfate salt remaining was measured by HPLC at periodic intervals and is given by comparison with the initial value (% rel.).

[4] = Long-term stability of hemisulfate salt, HPLC content; format: physicochemical; settings: salt stored in air, 25° C./60% rh
Procedure: as §1

Clinical safety = format: in vivo; settings: patients, doses of up to 200 mg/m^2
[5] = Phase I/II study ISO-CC-002, pharmacokinetics/pharmacodynamics versus Levoleucovorin; format: in vivo; settings: compared to Levoleucovorin, 32 colon cancer patients
Procedure: (b) In a single-blinded, randomized phase I/II study (ISO-CC-002) performed on 32 patients diagnosed with colon cancer the pharmacokinetic and pharmacodynamic properties of (6R)-5,10-CH2-THF hemisulfate compared to Levoleucovorin in tumor tissue, adjacent mucosa and blood plasma were investigated. The study was performed at the Sahlgrenska University Hospital in Goteborg, Sweden. […] The concentrations of methylenetetrahydrofolate and tetrahydrofolate in both tumor and adjacent mucosa were also much higher after administration of (6R)-5,10-CH2-THF hemisulfate than those obtained after administration of Levoleucovorin.

[6] = Comparative stability hemisulfate versus sulfate salt (Example 4-1); format: physicochemical
Procedure: Stability studies were performed as in the examples above. The conditions for the studies are provided with each data set provided. Some of the data in this example is from previous examples herein, but are reproduced here to provide some kind of a side-by-side nature of the presentation of the results.

[7] = Long-term stability of sulfate salt, HPLC content; format: physicochemical
Procedure: In order to compare the long-term stabilities of (6R)-5,10-CH2-THF hemisulfate salt to the long-term stabilities of (6R)-5,10-CH2-THF sulfate salt prepared according to EP 0 537 492 B1, stability data for (6R)-5,10-CH2-THF sulfate salt has been generated at various temperatures and humidities. (a) Stability of (6R)-5,10-CH2-THF Sulfate (6R)-5,10-CH2-THF sulfate salt was prepared according to literature procedures (EP 0 537 492 B1) and stored for 15 months at −20° C. Subsequently, samples of the product were stored at 5° C. resp. at 25° C. and 60% relative humidity resp. at 40° C. and 75% relative humidity. The content of (6R)-5,10-CH2-THF sulfate salt remaining in the sample was measured by HPLC at periodic intervals. The content of (6R)-5,10-CH2-THF sulfate was compared to the initial value at the time of preparation (% rel.).

[8] = Content of degradation product 10-formyltetrahydrofolic acid in sulfate salt, HPLC; format: physicochemical
Procedure: (b) Content of the degradation product 10-formyl-(6R)-tetrahydrofolic acid (6R)-5,10-CH2-THF sulfate salt was prepared according to literature procedures (EP 0 537 492 B1) and stored for 15 months at −20° C. Subsequently, samples of the product were stored at 5° C. resp. at 25° C. and 60% relative humidity resp. at 40° C. and 75% relative humidity. The content of 10-formyltetrahydrofolic acid, a major degradation product, was measured by HPLC at periodic intervals and disclosed as absolute values (% w/w).

[9] = after 15 months at −20° C., then 5° C., 0 months
[10] = after 15 months at −20° C., then 5° C., 6 months
[11] = after 15 months at −20° C., then 25° C./60% rh, 0 months
[12] = after 15 months at −20° C., then 25° C./60% rh, 6 months
[13] = after 15 months at −20° C., then 40° C./75% rh, 0 months
[14] = after 15 months at −20° C., then 40° C./75% rh, 6 months

SMILES: Nc1nc2c(c(=O)[nH]1)N1CN(c3ccc(C(=O)N[C@@H](CCC(=O)O)C(=O)O)cc3)C[C@H]1CN2 (mixture of isomers) [5,10-methylene-(6R,S)-tetrahydrofolic acid]
- % relative stability ([1]; with the exclusion of air, 0 hours): 100.0%
- % relative stability ([1]; with the exclusion of air, 4.0 hours): 58.0%
- % relative stability ([1]; with the exclusion of air, 24.0 hours): 38.0%
- % relative stability ([1]; with the exclusion of air, 26.0 hours): 18.0%
- % relative stability ([1]; with the exclusion of air, 48.0 hours): 8.0%
- % relative stability ([1]; without the exclusion of air, 0 hours): 100.0%
- % relative stability ([1]; without the exclusion of air, 4.0 hours): 84%
- % relative stability ([1]; without the exclusion of air, 24.0 hours): 12.0%
- % relative stability ([1]; without the exclusion of air, 26.0 hours): 8.0%
- % relative stability ([1]; without the exclusion of air, 48.0 hours): 6.0%

- Observation (suspension equilibration stability) ([2]; 2-PrOH with ~2 mM L-ascorbic acid, 40° C., 3 d): No change
- Observation (suspension equilibration stability) ([2]; AcOH saturated with L-ascorbic acid, 50° C., 1 d): No change
- Observation (suspension equilibration stability) ([2]; AcOH saturated with L-ascorbic acid, 50° C., 5 d): No change
- Observation (suspension equilibration stability) ([2]; H2O, 5° C., 6 d): No change
- Observation (suspension equilibration stability) ([2]; MeCN saturated with L-ascorbic acid, 50° C., 5 d): No change
- Observation (suspension equilibration stability) ([2]; MeOH/formic acid 1:1, 50° C., 2 h): No change
- Observation (suspension equilibration stability) ([2]; PEG4500/EtOH 1:9 saturated with L-ascorbic acid, 50° C., 7 d): No change
- Observation (suspension equilibration stability) ([2]; THF with ~2 mM L-ascorbic acid, 40° C., 3 d): No change
- Observation (suspension equilibration stability) ([2]; formic acid/THF 1:3, 10-20° C., 6 d): No change
- X-ray pattern of crystal form Type 1 (XRPD) ([3]; drying chamber 65° C. and 8 mbar for 21 h): remained unchanged
- X-ray pattern of crystal form Type 1 (XRPD) ([3]; stirred in 85% EtOH at room temperature for 5 h): remained unchanged
- (6R)-5,10-CH2—THF hemisulfate (% rel) ([4]; 0 months): 100.0 % rel
- (6R)-5,10-CH2—THF hemisulfate (% rel) ([4]; 3 months, listed as (6R)-5,10-CH2—THF hemisulfate (batch 1)): 99.7 % rel
- (6R)-5,10-CH2—THF hemisulfate (% rel) ([4]; 3 months, listed as (6R)-5,10-CH2—THF hemisulfate (batch 2)): 99.9 % rel
- (6R)-5,10-CH2—THF hemisulfate (% rel) ([4]; 3 months, listed as (6R)-5,10-CH2—THF hemisulfate (batch 3)): 99.5 % rel
- (6R)-5,10-CH2—THF hemisulfate (% rel) ([4]; 6 months): 99.5 % rel
- (6R)-5,10-CH2—THF hemisulfate (% rel) ([4]; 6 months, listed as (6R)-5,10-CH2—THF hemisulfate (batch 2)): 99.9 % rel
- (6R)-5,10-CH2—THF hemisulfate (% rel) ([4]; 9 months, listed as (6R)-5,10-CH2—THF hemisulfate (batch 1)): 99.6 % rel
- (6R)-5,10-CH2—THF hemisulfate (% rel) ([4]; 9 months, listed as (6R)-5,10-CH2—THF hemisulfate (batch 2)): 100.0 % rel
- (6R)-5,10-CH2—THF hemisulfate (% rel) ([4]; 9 months, listed as (6R)-5,10-CH2—THF hemisulfate (batch 3)): 99.4 % rel
- (6R)-5,10-CH2—THF hemisulfate (% rel) ([4]; 12 months, listed as (6R)-5,10-CH2—THF hemisulfate (batch 1)): 99.2 % rel
- (6R)-5,10-CH2—THF hemisulfate (% rel) ([4]; 12 months, listed as (6R)-5,10-CH2—THF hemisulfate (batch 2)): 99.7 % rel
- (6R)-5,10-CH2—THF hemisulfate (% rel) ([4]; 12 months, listed as (6R)-5,10-CH2—THF hemisulfate (batch 3)): 99.1 % rel
- (6R)-5,10-CH2—THF hemisulfate (% rel) ([4]; 18 months, listed as (6R)-5,10-CH2—THF hemisulfate (batch 1)): 99.2 % rel
- (6R)-5,10-CH2—THF hemisulfate (% rel) ([4]; 18 months, listed as (6R)-5,10-CH2—THF hemisulfate (batch 2)): 99.4 % rel
- (6R)-5,10-CH2—THF hemisulfate (% rel) ([4]; 18 months, listed as (6R)-5,10-CH2—THF hemisulfate (batch 3)): 99.0 % rel
- (6R)-5,10-CH2—THF hemisulfate (% rel) ([4]; 24 months, listed as (6R)-5,10-CH2—THF hemisulfate (batch 1)): 99.4 % rel
- (6R)-5,10-CH2—THF hemisulfate (% rel) ([4]; 24 months, listed as (6R)-5,10-CH2—THF hemisulfate (batch 2)): 99.4 % rel
- (6R)-5,10-CH2—THF hemisulfate (% rel) ([4]; 24 months, listed as (6R)-5,10-CH2—THF hemisulfate (batch 3)): 99.0 % rel
- (6R)-5,10-CH2—THF hemisulfate (% rel) ([4]; 36 months, listed as (6R)-5,10-CH2—THF hemisulfate (batch 1)): 98.5 % rel
- (6R)-5,10-CH2—THF hemisulfate (% rel) ([4]; 36 months, listed as (6R)-5,10-CH2—THF hemisulfate (batch 2)): 99.0 % rel
- concentrations of methylenetetrahydrofolate and tetrahydrofolate in tumor and adjacent mucosa [5]: much higher
- exposure and peak plasma concentrations of methylenetetrahydrofolate [5]: substantially greater
- stability compared with the sulfate salt ([6]; 3 batches, various temperatures): remarkably more stable
- stability at elevated temperature ([6]; +40° C. and relative humidity of 75%): excellent stability
SMILES: Nc1nc2c(c(=O)[nH]1)N1CN(c3ccc(C(=O)N[C@@H](CCC(=O)O)C(=O)O)cc3)C[C@H]1CN2 [(6R)-5,10-CH2-THF hemisulfate salt, N-[4-[(6aR)-3-amino-1,2,5,6,6a,7-hexahydro-1-oxoimidazo[1,5-f]pteridin-8(9H)-yl]benzoyl]-L-glutamic acid]
- safety (Clinical safety): safe

- (6R)-5,10-CH2—THF sulfate (% rel.) [7, 9]: 98.7 % rel.
- (6R)-5,10-CH2—THF sulfate (% rel.) [7, 10]: 97.3 % rel.
- (6R)-5,10-CH2—THF sulfate (% rel.) [7, 11]: 98.7 % rel.
- (6R)-5,10-CH2—THF sulfate (% rel.) [7, 12]: 95.5 % rel.
- (6R)-5,10-CH2—THF sulfate (% rel.) [7, 13]: 98.7 % rel.
- (6R)-5,10-CH2—THF sulfate (% rel.) [7, 14]: 95.0 % rel.
- (6R)-5,10-CH2—THF sulfate (% rel.) ([7]; −20° C., 0 months): 100.0 % rel.
- (6R)-5,10-CH2—THF sulfate (% rel.) ([7]; −20° C., 15 months): 98.7 % rel.
- 10-formyltetrahydrofolic acid (% w/w) [8, 9]: 1.37 % w/w
- 10-formyltetrahydrofolic acid (% w/w) [8, 10]: 1.47 % w/w
- 10-formyltetrahydrofolic acid (% w/w) [8, 11]: 1.37 % w/w
- 10-formyltetrahydrofolic acid (% w/w) [8, 12]: 1.89 % w/w
- 10-formyltetrahydrofolic acid (% w/w) [8, 13]: 1.37 % w/w
- 10-formyltetrahydrofolic acid (% w/w) [8, 14]: 2.36 % w/w
- 10-formyltetrahydrofolic acid (% w/w) ([8]; −20° C., 0 months): 0.53 % w/w
- 10-formyltetrahydrofolic acid (% w/w) ([8]; −20° C., 15 months): 1.37 % w/w
SMILES: Nc1nc2c(c(=O)[nH]1)N1CN(c3ccc(C(=O)N[C@@H](CCC(=O)O)C(=O)O)cc3)C[C@H]1CN2 [(6R)-5,10-CH2-THF sulfate salt, 5,10-methylene-(6R)-tetrahydrofolic acid]

Reference: patent publication US11306094B2, “Stable formulations of 5,10-methylene-(6R)-tetrahydrofolic acid” (MERCK & CIE, priority 2016, dated 2022)
